Each structure is given as a SMILES string. pIC50: −log10 of the molar value. Where only a bound is given, the exact number is not on record here.

Format in all cases: biochemical
In assay [1] the target is Jak2 (a.a. 828-1132) (Homo sapiens (Human), UniProt O60674). Kind of assay: In vitro JAK kinase assay (HTRF, phosphorylation of a biotinylated peptide), JAK2. The settings on record: measured at 1 mM ATP. The method, boiled down: (§1)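 Phosphorylation of a biotinylated peptide by purified His-tagged JAK catalytic domains (insect-cell baculovirus expression) ran 1 hr at room temperature. After stopping with EDTA, Eu-Py20 and SA-APC were bound for 40 minutes and HTRF measured.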
On the technique in general: TR-FRET usually uses a lanthanide donor and a delayed reading to cut background.

In assay [2] the target is human JAK1 (a.a. 837-1142). Kind of assay: In vitro JAK kinase assay (HTRF, phosphorylation of a biotinylated peptide), JAK1. Particulars: ratio of JAK2 IC50 to JAK1 IC50, measured at 1 mM ATP. The method, boiled down:
as §1

Assay [3] has as its target human JAK1 (a.a. 837-1142) (Homo sapiens, UniProt P23458). The assay is described as above. The settings on record: measured at 1 mM ATP. The method, boiled down:
as §1

Sequence of Jak2 (a.a. 828-1132) (O60674 828-1132): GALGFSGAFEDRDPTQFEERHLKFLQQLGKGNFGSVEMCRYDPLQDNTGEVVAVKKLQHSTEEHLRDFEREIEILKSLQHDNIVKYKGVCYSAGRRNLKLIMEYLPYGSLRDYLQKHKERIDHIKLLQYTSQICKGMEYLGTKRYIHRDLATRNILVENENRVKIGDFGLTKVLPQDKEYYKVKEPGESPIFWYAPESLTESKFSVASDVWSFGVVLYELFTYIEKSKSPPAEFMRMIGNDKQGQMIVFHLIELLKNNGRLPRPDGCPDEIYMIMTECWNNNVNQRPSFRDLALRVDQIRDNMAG

With `N#CCC1(n2cc(-c3ncnc4[nH]ccc34)cn2)CN(C2C3COCC2CN(C(=O)c2ccnc(C(F)(F)F)c2F)C3)C1` (stereo not drawn) [Example 365, {1-{7-[3-Fluoro-2-(trifluoromethyl)isonicotinoyl]-3-oxa-7-azabicyclo[3.3.1]non-9-yl}-3-[4-(7H-pyrrolo[2,3-d]pyrimidin-4-yl)-1H-pyrazol-1-yl]azetidin-3-yl}acetonitrile], the values for the negative logarithm of the IC50 (pIC50) in assay [1] and in assay [3] were 7.30 to 8.00 and not below 8.30, respectively. In addition, the “IC50 Ratio JAK2/JAK1” value in assay [2] amounted to 15.5.

As to `N#CCC1(n2ccc(-c3ncnc4[nH]ccc34)c2)CN(C2CCN(C(=O)Nc3ccc(F)cc3C(F)(F)F)CC2)C1` [Example 283, 4-{3-(Cyanomethyl)-3-[3-(7H-pyrrolo[2,3-d]pyrimidin-4-yl)-1H-pyrrol-1-yl]azetidin-1-yl}-N-[4-fluoro-2-(trifluoromethyl)phenyl]piperidine-1-carboxamide], the negative logarithm of the IC50 (pIC50) (as a rule, the IC50 on a negative log10 scale, so that one unit is a factor of ten) in assay [1] is 7.00 to 7.30; in assay [3], not below 8.30. Moreover, the “IC50 Ratio JAK2/JAK1” value in assay [2] was 35.6.

As for `CC1(COC(=O)N2CCC(N3CC(CC#N)(n4cc(-c5ncnc6[nH]ccc56)cn4)C3)CC2)CC1` [Example 392, (1-methylcyclopropyl)methyl 4-{3-(cyanomethyl)-3-[4-(7H-pyrrolo[2,3-d]pyrimidin-4-yl)-1H-pyrazol-1-yl]azetidin-1-yl}piperidine-1-carboxylate], the pIC50 in assay [1] was 7.30 to 8.00; in assay [3] it was 7.70 to 8.30. The “IC50 Ratio JAK2/JAK1” value in assay [2] is reported as 5.6.

In the case of `COc1c(Br)cc(C(=O)N2CCC(N3CC(CC#N)(n4cc(-c5ncnc6[nH]ccc56)cn4)C3)CC2)cc1Br` [Example 50, {1-[1-(3,5-dibromo-4-methoxybenzoyl)piperidin-4-yl]-3-[4-(7H-pyrrolo[2,3-d]pyrimidin-4-yl)-1H-pyrazol-1-yl]azetidin-3-yl}acetonitrile], the negative-log IC50 (pIC50) in assay [1] is not below 8.00; in assay [3], not below 8.30. Also, the “IC50 Ratio JAK2/JAK1” value in assay [2] was found to be 6.9.

`N#CCC1(n2cc(-c3ncnc4[nH]ccc34)cn2)CN(C2CCN(C(=O)Nc3nc4ccccc4s3)CC2)C1` [Example 193, N-1,3-benzothiazol-2-yl-4-{3-(cyanomethyl)-3-[4-(7H-pyrrolo[2,3-d]pyrimidin-4-yl)-1H-pyrazol-1-yl]azetidin-1-yl}piperidine-1-carboxamide]: the negative logarithm of the IC50 (pIC50) was not below 8.00 in assay [1] and not below 8.30 in assay [3]. In addition, in assay [2], the “IC50 Ratio JAK2/JAK1” value was determined as 0.5.

On to `N#CCC1(n2cc(-c3ncnc4[nH]ccc34)cn2)CN(C2CCN(C(=O)c3cccc(Br)c3)CC2)C1` [Example 20, {1-[1-(3-bromobenzoyl)piperidin-4-yl]-3-[4-(7H-pyrrolo[2,3-d]pyrimidin-4-yl)-1H-pyrazol-1-yl]azetidin-3-yl}acetonitrile], for which the pIC50 is not below 8.00 in assay [1] and not below 8.30 in assay [3]. Moreover, the “IC50 Ratio JAK2/JAK1” value in assay [2] was found to be 4.2.

For `N#CCC1(n2cc(-c3ncnc4[nH]ccc34)cn2)CN(C2CCN(C(=O)c3ncco3)CC2)C1` [Example 16, {1-[1-(1,3-oxazol-2-ylcarbonyl)piperidin-4-yl]-3-[4-(7H-pyrrolo[2,3-d]pyrimidin-4-yl)-1H-pyrazol-1-yl]azetidin-3-yl}acetonitrile], the results for the pIC50 in assay [1] and in assay [3] were 7.30 to 8.00 and 7.70 to 8.30, respectively. The “IC50 Ratio JAK2/JAK1” value in assay [2] worked out at 2.5.

On to `N#CCC1(n2cc(-c3ccnc4[nH]ccc34)cn2)CN(C2CCN(C(=O)c3cnc(C(F)(F)F)cn3)CC2)C1` [Example 301, [3-[4-(1H-pyrrolo[2,3-b]pyridin-4-yl)-1H-pyrazol-1-yl]-1-(1-{[5-(trifluoromethyl)pyrazin-2-yl]carbonyl}piperidin-4-yl)azetidin-3-yl]acetonitrile], for which the pIC50 in assay [1] is 7.00 to 7.30; in assay [3], 7.52 to 7.70. Also, the “IC50 Ratio JAK2/JAK1” value in assay [2] is recorded as 3.3.

Take `N#CCC1(n2ccc(-c3ncnc4[nH]ccc34)c2)CN(C2CCN(C(=O)c3ccc(F)c(C(F)(F)F)c3)CC2)C1` [Example 275, {1-{1-[4-fluoro-3-(trifluoromethyl)benzoyl]piperidin-4-yl}-3-[3-(7H-pyrrolo[2,3-d]pyrimidin-4-yl)-1H-pyrrol-1-yl]azetidin-3-yl}acetonitrile]: the pIC50 in assay [1] is 7.30 to 8.00; in assay [3] it was 7.70 to 8.30. In addition, the “IC50 Ratio JAK2/JAK1” value in assay [2] came out at 3.1.

Take `Cn1nccc1S(=O)(=O)N1CCC(N2CC(CC#N)(n3cc(-c4ncnc5[nH]ccc45)cn3)C2)CC1` [Example 246, {1-{1-[(1-Methyl-1H-pyrazol-5-yl)sulfonyl]piperidin-4-yl}-3-[4-(7H-pyrrolo[2,3-d]pyrimidin-4-yl)-1H-pyrazol-1-yl]azetidin-3-yl}acetonitrile]: the values for the pIC50 in assay [1] and in assay [3] were 7.30 to 8.00 and not below 8.30, respectively. Further, in assay [2], the “IC50 Ratio JAK2/JAK1” value is 7.5.

On to `N#CCC1(n2ccc(-c3ncnc4[nH]ccc34)c2)CN(C2CCN(C(=O)Nc3ncccc3C(F)(F)F)CC2)C1` [Example 290, 4-{3-(cyanomethyl)-3-[3-(7H-pyrrolo[2,3-d]pyrimidin-4-yl)-1H-pyrrol-1-yl]azetidin-1-yl}-N-[3-(trifluoromethyl)pyridin-2-yl]piperidine-1-carboxamide], for which the pIC50 in assay [1] was less than 7.00; in assay [3], 7.52 to 7.70. The “IC50 Ratio JAK2/JAK1” value in assay [2] was found to be 3.9.

Regarding `N#CCC1(n2cc(-c3ncnc4[nH]ccc34)cn2)CN(C2CCN(Cc3cccc(C(F)(F)F)c3F)CC2)C1` [Example 212, {1-{-[2-fluoro-3-(trifluoromethyl)benzyl]piperidin-4-yl}-3-[4-(7H-pyrrolo[2,3-d]pyrimidin-4-yl)-1H-pyrazol-1-yl]azetidin-3-yl}acetonitrile], the results for the pIC50 in assay [1] and in assay [3] were 7.00 to 7.30 and 7.70 to 8.30, respectively. In assay [2], the “IC50 Ratio JAK2/JAK1” value worked out at 7.8.

As for `N#CCC1(n2cc(-c3ncnc4[nH]ccc34)cn2)CN(C2CCN(C(=O)Nc3ccccc3OC(F)F)CC2)C1` [Example 164, 4-{3-(cyanomethyl)-3-[4-(7H-pyrrolo[2,3-d]pyrimidin-4-yl)-1H-pyrazol-1-yl]azetidin-1-yl}-N-[2-(difluoromethoxy)phenyl]piperidine-1-carboxamide], the pIC50 in assay [1] is 7.30 to 8.00; in assay [3], not below 8.30. The “IC50 Ratio JAK2/JAK1” value in assay [2] is given as 13.3.

As to `N#CCC1(n2cc(-c3ccnc4[nH]ccc34)cn2)CN(C2CCN(C(=O)Nc3ccc(F)cc3C(F)(F)F)CC2)C1` [Example 303, 4-{3-(Cyanomethyl)-3-[4-(1H-pyrrolo[2,3-b]pyridin-4-yl)-1H-pyrazol-1-yl]azetidin-1-yl}-N-[4-fluoro-2-(trifluoromethyl)phenyl]piperidine-1-carboxamide], the pIC50 in assay [1] was 7.00 to 7.30; in assay [3], not below 8.30. Besides, the “IC50 Ratio JAK2/JAK1” value in assay [2] was 19.7.

For `N#CCC1(n2cc(-c3ncnc4[nH]ccc34)cn2)CN(C2CCN(C(=O)c3ccc(-c4ccc5ccncc5c4)c(F)c3)CC2)C1` [Example 133, {1-[1-(3-fluoro-4-isoquinolin-7-ylbenzoyl)piperidin-4-yl]-3-[4-(7H-pyrrolo[2,3-d]pyrimidin-4-yl)-1H-pyrazol-1-yl]azetidin-3-yl}acetonitrile], the pIC50 in assay [1] is 7.30 to 8.00; in assay [3] it was not below 8.30. Further, in assay [2], the “IC50 Ratio JAK2/JAK1” value was 7.9.

For `N#CCC1(n2ccc(-c3ncnc4[nH]ccc34)c2)CN(C2CCN(C(=O)c3ccc(F)c(F)c3F)CC2)C1` [Example 280, {3-[3-(7H-pyrrolo[2,3-d]pyrimidin-4-yl)-1H-pyrrol-1-yl]-1-[1-(2,3,4-trifluorobenzoyl)piperidin-4-yl]azetidin-3-yl}acetonitrile], the pIC50 in assay [1] is not below 8.00; in assay [3] it was not below 8.30. Moreover, the “IC50 Ratio JAK2/JAK1” value in assay [2] is 7.5.

Turning to `N#CCC1(n2cc(-c3ncnc4[nH]ccc34)cn2)CN(C2CCN(C(=O)Nc3ncccc3C(F)(F)F)CC2)C1` [Example 201, 4-{3-(cyanomethyl)-3-[4-(7H-pyrrolo[2,3-d]pyrimidin-4-yl)-1H-pyrazol-1-yl]azetidin-1-yl}-N-[3-(trifluoromethyl)pyridin-2-yl]piperidine-1-carboxamide], the pIC50 in assay [1] was 7.30 to 8.00; in assay [3], 7.70 to 8.30. The “IC50 Ratio JAK2/JAK1” value in assay [2] worked out at 3.6.

Take `N#CCC1(n2cc(-c3ccnc4[nH]ccc34)cn2)CN(C2CCN(C(=O)c3ccc(C#N)cc3F)CC2)C1` [Example 295, 4-[(4-{3-(cyanomethyl)-3-[4-(1H-pyrrolo[2,3-b]pyridin-4-yl)-1H-pyrazol-1-yl]azetidin-1-yl}piperidin-1-yl)carbonyl]-3-fluorobenzonitrile]: the negative-log IC50 (pIC50) in assay [1] is 7.30 to 8.00; in assay [3] it was 7.70 to 8.30. In addition, in assay [2], the “IC50 Ratio JAK2/JAK1” value came to 5.1.

On to `Cc1noc(C)c1S(=O)(=O)N1CCC(N2CC(CC#N)(n3cc(-c4ncnc5[nH]ccc45)cn3)C2)CC1` [Example 260, {1-{1-[(3,5-dimethylisoxazol-4-yl)sulfonyl]piperidin-4-yl}-3-[4-(7H-pyrrolo[2,3-d]pyrimidin-4-yl)-1H-pyrazol-1-yl]azetidin-3-yl}acetonitrile], for which the pIC50 in assay [1] was 7.30 to 8.00; in assay [3], not below 8.30. Besides, the “IC50 Ratio JAK2/JAK1” value in assay [2] was 7.1.

Turning to `N#CCC1(n2cc(-c3ncnc4[nH]ccc34)cn2)CN(C2CCN(C(=O)Nc3cccc(Cl)c3)CC2)C1` [Example 183, N-(3-chlorophenyl)-4-{3-(cyanomethyl)-3-[4-(7H-pyrrolo[2,3-d]pyrimidin-4-yl)-1H-pyrazol-1-yl]azetidin-1-yl}piperidine-1-carboxamide], the pIC50 in assay [1] is not below 8.00; in assay [3] it was not below 8.30. Further, the “IC50 Ratio JAK2/JAK1” value in assay [2] is 3.8.

As to `N#CCC1(n2cc(-c3ncnc4[nH]ccc34)cn2)CN(C2CCN(C(=O)c3cc(F)cc(Br)c3)CC2)C1` [Example 29, {1-[1-(3-bromo-5-fluorobenzoyl)piperidin-4-yl]-3-[4-(7H-pyrrolo[2,3-d]pyrimidin-4-yl)-1H-pyrazol-1-yl]azetidin-3-yl}acetonitrile], the pIC50 is not below 8.00 in assay [1] and not below 8.30 in assay [3]. Further, the “IC50 Ratio JAK2/JAK1” value in assay [2] came to 7.2.

For the origin of these results see patent publication US9999619B2, “Piperidin-4-yl azetidine derivatives as JAK1 inhibitors” (Incyte Corporation, priority 2010, dated 2018).
